Assay results as given in US6413947B1, “Anilide derivative, production and use thereof” (Takeda Chemical Industries, Ltd., priority 1997, dated 2002).

How the values were obtained:
HIV-1 BA-L [1] = assay: Inhibitory effect on HIV-1 infection to MAGI-CCR5 cell; assay type: cell-based; details: 2 days
Method: The plasmid where β-galactosidase gene was ligated downstream of HIV-1 LTR was introduced into CD4 positive HeLa cell, to which human CCR5 was further introduced to obtain transformant MAGI-CCR5. By using said transformant MAGI-CCR5, degree of HIV-1 infection was calculated from β-galactosidase activity (blue color due to decomposition of 5-bromo-4-chloro-3-indolyl-β-D-galactopyranoside). Specifically, MAGI-CCR5 cells were suspended in DMEM medium containing 10% serum to prepare 5×10^4 cells/ml suspension. To each well of 96 well plate was inoculated 200 μl of the suspension, and the cells were cultivated at 37° C. overnight. The medium was removed by means of suction, and to the residue was added 100 μl of the above medium containing 1.6 μM of Test Compound 96 or 0.064 μM of Test Compound 248 and 100 μl of the above medium containing 300PFU of HIV-1 BA-L cells. The cells were cultivated at 37° C. for 2 days. The medium was removed by means of suction. To the residue was added 200 μl of cell fixative (PBS containing 1% formaldehyde and 0.2% glutaraldehyde), and the mixture was allowed to stand at room temperature for 5 minutes and washed twice with PBS. […] The number of blue cells was counted by microscope and defined as the number of cells infected with HIV-1.

HIV-1 BA-L [2] = assay: Inhibitory effect on HIV-1 infection to human PBMC; assay type: cell-based; details: human PBMC stimulated with PHA and IL-2, 7 days
Method: From normal person human peripheral blood mononuclear cells (PBMC) were separated, and the cells were stimulated with 10 μg/ml of PHA (Phytohemaglutinin) and 20 U/ml of interleukin-2 (IL-2) for 3 days. The cells were suspended in RPMI-1640 medium containing 20% serum to prepare 1×10^6/ml suspension. To the suspension were infected HIV-1 BA-L cells (20 ng as an amount of p24 antigen), and viruses were absorbed at 37° C. for 2 hours. The cells were washed and suspended in RPMI-1640 medium containing 20% serum and IL-2 20 U/ml to prepare 1×10^5/ml suspension. To the PBMC suspension was added the same amount of a solution which contains 2.0 μM of Test Compound 96 or 0.32 μM of Test Compound 248, and the cells were cultivated at 37° C. for 7 days in carbon dioxide gas incubator. The amount of p24 antigen in supernatant of the cultivated medium was determined by enzyme-linked immunosorbent assay (ELISA) and defined as degree of HIV-1 infection.

human CCR5 = target: T1, human CCR5 (Homo sapiens, UniProt P51681); assay: CCR5 antagonistic activity ([125I]-RANTES binding to CHO/CCR5 cells); details: Test Compound 1 μM, 100 pM [125I]-RANTES, room temperature 30 minutes; for inhibition at 1 µM: read-out: Inhibition Rate (%) to CCR5 binding
T1 construct: expressed in transfected cells; host or cells: CHO-K1 cells, geneticin-resistant clone CHO/CCR5
T1 sequence (P51681 whole entry): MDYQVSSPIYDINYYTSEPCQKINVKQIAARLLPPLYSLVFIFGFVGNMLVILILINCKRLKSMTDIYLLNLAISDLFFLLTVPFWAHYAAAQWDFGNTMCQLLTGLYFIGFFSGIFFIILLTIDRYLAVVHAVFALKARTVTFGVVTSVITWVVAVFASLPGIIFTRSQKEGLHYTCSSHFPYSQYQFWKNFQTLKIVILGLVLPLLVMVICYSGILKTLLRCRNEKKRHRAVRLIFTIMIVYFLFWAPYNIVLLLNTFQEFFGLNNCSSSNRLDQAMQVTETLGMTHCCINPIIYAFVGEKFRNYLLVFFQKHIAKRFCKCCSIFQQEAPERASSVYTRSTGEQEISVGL
Method: Cloning of CCR5 gene was carried out by PCR (polymerase chain reaction) from human spleen cDNA. With using 0.5 ng of spleen cDNA (Toyobo, QUICK-Clone cDNA) as template, PCR was performed in DNA Thermal Cycler 480 (Perkin-Elmer) (reaction conditions: 30 cycles of 95° C. for 1 minute, 60° C. for 1 minute, and 75° C. for 5 minutes) by adding primer set, 5′-CAGGATCCGATG […]-3′ (25 pmol) and 5′-TCTAGATCACAAGCC CACAGATATTTCCTGCTCC-3′ (25 pmol), which were designed referring to nucleotide sequence of CCR5 gene reported by Samson et al. (Biochemistry, 35(11), 3362-3367 (1996)) and by using TaKaRa EX Taq (Takara Shuzo). The resultant PCR product was subjected to agarose gel electrophoresis to collect about 1.0 kb DNA fragment, which was subjected to Original TA Cloning Kit (Funakoshi) to carry out cloning of CCR5 gene.
The plasmid obtained in the above (1) was digested with restriction enzymes XbaI (Takara Shuzo) and BamHI (Takara Shuzo) and subjected to agarose gel electrophoresis to collect about 1.0 kb DNA fragment. The DNA fragment was mixed with plasmid pcDNA3.1 (Funakoshi) for expression in animal cells, said plasmid being digested with XbaI and BamHI, and they were ligated with DNA Ligation Kit Ver.2 (Takara Shuzo). The resulting plasmid was subjected to transformation of competent cell of E. coli JM109 (Takara Shuzo) to obtain plasmid pCKR5.
CHO-K1 cells were grown in 750 ml of tissue culture flask (Becton Dickinson) using Ham's F12 medium (Nihon Pharmaceutical) containing 10% fetal calf serum (Life Tech Oriental) and took off with 0.5 g/L trypsin-0.2 g/L EDTA (Life Tech Oriental). The cells were washed with PBS (Life Tech Oriental), centrifuged (1000 rpm, 5 minutes), and suspended in PBS. With using Gene Pulser (Bio-Rad Laboratories), DNA was introduced into the cells under the conditions shown below. That is, to the cuvette of 0.4 cm gap were added 8×10^6 cells and 10 μg of plasmid pCKR5 for expression of human CCR5, and electroporation was carried out under 0.25 kV of voltage and 960 μF of capacitance. The cells were transferred into Ham's F12 medium (Nihon Pharmaceutical) containing 10% fetal calf serum, and cultivated for 24 hours. The cells were again took off and centrifuged, and suspended in Ham's F12 medium (Nihon Pharmaceutical) containing 10% fetal calf serum and 500 μg/ml of geneticin (Life Tech Oriental). The suspension was diluted to give 1 cells/ml of the suspension, which was inoculated on 96 well plate (Becton Dickinson) to give geneticin resistant cells. The resulting geneticin resistant cells were cultivated in 96 well plate (Becton Dickinson), and cells expressing CCR5 were selected from the geneticin resistant cells. That is, in assay buffer (Ham's F12 medium containing 0.5% BSA and 20 mM HEPES (Wako Pure Chemical, pH7.2) to which was added 200 pM of [^125I]-RANTES (Amersham) as ligand, binding reaction was carried out at room temperature for 40 minutes, and the buffer was washed with cooled PBS. To the buffer was added 50 μl/well of 1M NaOH, and the mixture was stirred. Radioactivity was determined with γ-counter to select CHO/CCR5 cells which specifically bind to the ligand.
The CHO/CCR5 were inoculated on 96 well microplate (5×10^4 cells/well) and cultivated for 24 hours. […] Radio-activity was determined with Top-Count Micro Scintillation Counter (Packard Instrument, Inc.). […]

Molecule | Inhibition Rate (%) to CCR5 binding (human CCR5) [%] | inhibition at 1 µM (human CCR5) [%] | other results
Cc1ccc(-c2ccc3c(c2)C=C(C(=O)Nc2ccc(C[N+]4(C)CCCCC4)cc2)CCO3)cc1 [Compound 96, 1—(N-(7—(4-methylphenyl)-2,3-dihydro-1-benzoxepin-4-carbonyl)-4-aminobenzyl)-1-methylpiperidinium iodide] | – | – | inhibition on HIV-1 infection (number of blue cells) (HIV-1 BA-L [1]; 100 μl medium containing 1.6 μM of Test Compound plus 100 μl medium with 300PFU HIV-1 BA-L): 92%; inhibition on HIV-1 infection (p24 antigen in supernatant, ELISA) (HIV-1 BA-L [2]; same amount of a solution containing 2.0 μM of Test Compound added): 96%
Cc1ccc(-c2ccc(/C=C/C(=O)Nc3ccc(CP4(=O)CCCCC4)cc3)s2)cc1 [Compound 209, (E)-N-(4-pentamethylenephosphorylmethylphenyl)-3-[5—(4-methylphenyl)thiophen-2-yl]acrylic amide] | 80 | – | –
Cc1ccc(-c2ccc3c(c2)C=C(C(=O)Nc2ccc(C[N+](C)(C)C4CCOCC4)cc2)CCC3)cc1 [Compound 248, N,N-dimethyl-N-(4-(((2-(4-methylphenyl)-6,7-dihydro-5H-benzocyclohepten-8-yl)carbonyl)amino)benzyl)-N-(4-tetrahydropyranyl)ammonium chloride] | – | 99 | inhibition on HIV-1 infection (number of blue cells) (HIV-1 BA-L [1]; 100 μl medium containing 0.064 μM of Test Compound plus 100 μl medium with 300PFU HIV-1 BA-L): 100%; inhibition on HIV-1 infection (p24 antigen in supernatant, ELISA) (HIV-1 BA-L [2]; same amount of a solution containing 0.32 μM of Test Compound added): 74%
CCOc1ccc(-c2ccc3c(c2)C=C(C(=O)Nc2ccc(C[N+](C)(C)C4CCOCC4)cc2)CCO3)cc1 [Compound 250, N-(4-(((7-(4-ethoxyphenyl)-2,3-dihydro-1-benzoxepin-4-yl)carbonyl)amino)benzyl)-N,N-dimethyl-N-(4-tetrahydropyranyl)ammonium chloride] | – | 96 | –

Now from value to molecule, other results behind:

Inhibition Rate (%) to CCR5 binding (human CCR5) [%] | Molecule | inhibition at 1 µM (human CCR5) [%] | other results
99 | CC(C)(C)c1ccc(-c2ccc3c(c2)C=C(C(=O)Nc2ccc(CP4(=O)CCCCC4)cc2)CCO3)cc1 [Compound 180, N-(4—(pentamethylene)phosphorylmethylphenyl)-7—(4-tert-butylphenyl)-2,3-dihydro-1-benzoxepine-4-carboxamide] | – | –
100 | N-((7—(4-methylphenyl)-2,3-dihydro-1-benzoxepin-4-carbonyl)-2—(4-aminophenyl)ethyl)-N-methylpiperidinium iodide [Compound 100] | – | –
